Patent US10556943B2, “HLA-DR binding peptides and their uses” (priority 2007, dated 2020)
Ends that are not written are not given here.

Assays:
purified HLA DRB1*0701 = biological target: T1, purified HLA DRB1*0701 (Homo sapiens, UniProt P01903+P01911, A100R/A102G/A103Q/D57E/D86V/E43K/F76Y/K127E/L162R/M171V/P40G/Q125H/Q99D/R33Q/R42Y/R54Q/S133A/S66F/T210M/V115G/Y107V/Y59L/Y89S); experiment: HLA-DR radioligand binding inhibition assay, DRB1*0701
T1 construct: MHC molecules utilized were purified from EBV transformed homozygous cell lines or single MHC allele transfected 721.221, C1R, or fibroblast lines; made in house; host or cells: EBV transformed homozygous cell lines or single MHC allele transfected 721.221, C1R, or fibroblast lines
Protocol: (§1) Fifteen distinct HLA-DR molecules were used in quantitative assays to measure the binding of peptides to solubilized HLA-DR molecules. […] Briefly, columns of inactivated Sepharose CL4B and Protein A Sepharose were used as pre-columns. HLA-DR molecules were captured by passage of lysates over LB3.1 monoclonal antibody (anti-HLA-DRA) columns. Antibody columns were washed with 10 mM Tris-HCL, pH8.0 with 1% (v/v) NP-40, followed by PBS containing 0.4% (w/v) n-octylglucoside.
(§2) Briefly, 1-10 nM of radiolabeled peptide was co-incubated for 2 days at either room temperature or 37° C. with 1 μM to 1 nM purified HLA-DR molecules in the presence of a cocktail of protease inhibitors. Assays were performed at various pH conditions, ranging from pH 4 to pH 7. […] After incubation, the percentage of HLA-DR-bound radioactivity is determined by capturing HLA-DR/peptide complexes on Optiplates (Packard Instruments, Meriden, Conn.) coated with the LB3.1 antibody and determining bound counts per minute using the TopCount microscintillation counter (Packard Instruments).

patient-derived PBMC = experiment: 10-day interferon-gamma ELIspot on PBMC of patients and healthy donors; assay type: cell-based, human; settings: for fraction of patients that had mean T cell values above the cutoff: cutoff = mean and two standard deviations of normal healthy individuals; for % = Percent of patients with responses: ELIspot, patients with either breast or ovarian cancer
Text: Enzyme-linked immunosorbent spot assay.
An interferon-gamma ELIspot assay was used to assess immunity to the indiscriminate binding peptides in 48 patients with either breast or ovarian cancer and 18 healthy controls.
Using an ELIspot assay with a limit of detection of approximately 1:100,000 antigen-specific T cells per million PBMC, patient-derived PBMC were screened for reactivity against all of the HLA-DR binding peptides.

short term T cell lines = experiment: IFN-γ ELISpot analysis of short term T cell lines (natural processing); assay type: cell-based, human; settings: T cell lines respond to peptide and protein fragment; FIGS. 5, 6
purified HLA DRB1*0404 = biological target: T2, purified HLA DRB1*0404 (Homo sapiens, UniProt P01903+P01911, A100R/A169T/F76Y/I96L/K127E/L162R/M171V/N62H/P40V/Q125Y/R42H/S133A/S149N/S66Y/V209L/W38E); experiment: HLA-DR radioligand binding inhibition assay, DRB1*0404
T2 construct: MHC molecules utilized were purified from EBV transformed homozygous cell lines or single MHC allele transfected 721.221, C1R, or fibroblast lines; made in house; host or cells: EBV transformed homozygous cell lines or single MHC allele transfected 721.221, C1R, or fibroblast lines
Protocol: as §1, with “n-octylglucoside. […] The pH was reduced to 8.0 and the eluates were concentrated by centrifugation in Centriprep 30 concentrators at 2000 rpm (Amicon, Beverly, Mass.).” for “n-octylglucoside.”
as §2, with “Instruments). […] Competitor peptides are tested in 2-4 complete, independent experiments, at concentrations ranging from 30 μg/mL to 300 pg/mL.” for “Instruments).”

| Compound | % = Percent of patients with responses (patient-derived PBMC) [%] | naturally processed and presented antigen (short term T cell lines) | also measured |
| --- | --- | --- | --- |
| CC[C@H](C)[C@H](NC(=O)[C@H](C)NC(=O)[C@@H](NC(=O)[C@@H]1CCCN1C(=O)[C@@H](NC(=O)[C@@H](N)CCCCN)[C@@H](C)CC)C(C)C)C(=O)N[C@@H](CCCCN)C(=O)N[C@H](C(=O)N[C@@H](CC(C)C)C(=O)N[C@@H](CCCNC(=N)N)C(=O)N[C@@H](CCC(=O)O)C(=O)N[C@@H](CC(N)=O)C(=O)N[C@H](C(=O)N[C@@H](CO)C(=O)N1CCC[C@H]1C(=O)O)[C@@H](C)O)C(C)C [Peptide 1622.03] |  |  | IC50 (purified HLA DRB1*0701): > 20 µM |
| CC[C@H](C)[C@H](N)C(=O)N[C@@H](CCCCN)C(=O)N[C@@H](Cc1c[nH]c2ccccc12)C(=O)N[C@@H](CCSC)C(=O)N[C@@H](C)C(=O)N[C@@H](CC(C)C)C(=O)N[C@@H](CCC(=O)O)C(=O)N[C@@H](CO)C(=O)N[C@H](C(=O)N[C@@H](CC(C)C)C(=O)N[C@@H](CCCNC(=N)N)C(=O)N[C@@H](CCCNC(=N)N)C(=O)N[C@@H](CCCNC(=N)N)C(=O)N[C@@H](Cc1ccccc1)C(=O)N[C@H](C(=O)O)[C@@H](C)O)[C@@H](C)CC [Peptide 9019.0003] |  |  | fraction of patients that had mean T cell values above the cutoff (patient-derived PBMC; FIG. 1): 4%; patient response rate on exclusion of one healthy individual's data point (patient-derived PBMC; FIG. 1, robust healthy responder excluded from cutoff): 15% |
| CC(C)C[C@H](NC(=O)[C@H](CO)NC(=O)[C@H](C)NC(=O)[C@H](CC(N)=O)NC(=O)[C@@H](NC(=O)[C@@H]1CCCN1C(=O)[C@H](CC(C)C)NC(=O)[C@H](Cc1ccc(O)cc1)NC(=O)[C@@H](NC(=O)[C@H](CC(C)C)NC(=O)[C@H](CCC(=O)O)NC(=O)[C@H](CC(C)C)NC(=O)[C@@H](N)CC(N)=O)[C@@H](C)O)[C@@H](C)O)C(=O)N[C@@H](CO)C(=O)N[C@@H](Cc1ccccc1)C(=O)O [Peptide 9019.0030] | 15 | naturally processed and presented antigens |  |
| CC[C@H](C)[C@H](NC(=O)[C@H](CCCNC(=N)N)NC(=O)[C@H](CC(C)C)NC(=O)[C@H](CCCNC(=N)N)NC(=O)[C@H](CCC(N)=O)NC(=O)[C@H](CC(C)C)NC(=O)[C@@H]1CCCN1C(=O)[C@@H](NC(=O)[C@H](CCC(N)=O)NC(=O)[C@H](CCCNC(=N)N)NC(=O)[C@@H](NC(=O)[C@H](CCC(N)=O)NC(=O)[C@H](CC(N)=O)NC(=O)[C@@H](N)Cc1c[nH]cn1)C(C)C)C(C)C)C(=O)N[C@H](C(=O)O)C(C)C [Peptide 9019.0034] |  | naturally processed and presented antigens |  |
| CC[C@H](C)[C@H](NC(=O)[C@H](CC(=O)O)NC(=O)[C@H](CCCCN)NC(=O)[C@H](Cc1c[nH]c2ccccc12)NC(=O)[C@H](CC(C)C)NC(=O)[C@@H](NC(=O)[C@@H](NC(=O)[C@H](CC(=O)O)NC(=O)[C@H](CCC(N)=O)NC(=O)[C@H](Cc1ccc(O)cc1)NC(=O)[C@H](CS)NC(=O)[C@H](CC(C)C)NC(=O)[C@H](CCC(N)=O)NC(=O)[C@@H]1CCCN1C(=O)[C@@H](N)CC(N)=O)[C@@H](C)O)[C@@H](C)CC)C(=O)O [Peptide 9019.0041] |  |  | IC50 (purified HLA DRB1*0701): > 20 µM |
| CC[C@H](C)[C@H](NC(=O)[C@@H]1CCCN1)C(=O)N[C@@H](CCCCN)C(=O)N[C@@H](Cc1c[nH]c2ccccc12)C(=O)N[C@@H](CCSC)C(=O)N[C@@H](C)C(=O)N[C@@H](CC(C)C)C(=O)N[C@@H](CCC(=O)O)C(=O)N[C@@H](CO)C(=O)N[C@H](C(=O)N[C@@H](CC(C)C)C(=O)N[C@@H](CCCNC(=N)N)C(=O)N[C@@H](CCCNC(=N)N)C(=O)N[C@@H](CCCNC(=N)N)C(=O)N[C@@H](Cc1ccccc1)C(=O)O)[C@@H](C)CC [Peptide 9019.0087] | 25 | naturally processed and presented antigens | fraction of patients that had mean T cell values above the cutoff (patient-derived PBMC; FIG. 1): 25% |
| CC(C)C[C@H](NC(=O)[C@@H]1CCCN1C(=O)[C@@H](NC(=O)[C@@H](NC(=O)[C@@H]1CCCN1C(=O)[C@H](CC(=O)O)NC(=O)[C@H](CCC(=O)O)NC(=O)[C@H](CO)NC(=O)[C@H](Cc1ccc(O)cc1)NC(=O)[C@H](CCCNC(=N)N)NC(=O)[C@H](CCC(N)=O)NC(=O)[C@@H](N)CC(C)C)[C@@H](C)O)C(C)C)C(=O)N1CCC[C@H]1C(=O)N[C@@H](CO)C(=O)N[C@@H](CCC(=O)O)C(=O)O [Peptide 9019.0099] |  |  | IC50 (purified HLA DRB1*0404): 13.1 µM |
| CC[C@H](C)[C@H](NC(=O)[C@@H](NC(=O)[C@H](CC(C)C)NC(=O)[C@H](CCCCN)NC(=O)[C@H](C)NC(=O)[C@@H](NC(=O)[C@@H](NC(=O)[C@@H]1CCCN1C(=O)[C@@H]1CCCN1C(=O)[C@H](CC(N)=O)NC(=O)[C@H](Cc1c[nH]c2ccccc12)NC(=O)[C@H](Cc1ccccc1)NC(=O)[C@@H](NC(=O)[C@H](CC(C)C)NC(=O)[C@@H](N)CC(C)C)[C@@H](C)O)[C@@H](C)O)[C@@H](C)O)[C@@H](C)O)C(=O)O [Peptide 9019.0105] | 17 |  |  |
| CC(C)C[C@H](NC(=O)[C@H](CC(N)=O)NC(=O)[C@H](CO)NC(=O)[C@@H](NC(=O)[C@H](Cc1ccccc1)NC(=O)[C@H](CS)NC(=O)[C@H](C)NC(=O)[C@@H](N)Cc1ccc(O)cc1)C(C)C)C(=O)N[C@@H](C)C(=O)N[C@H](C(=O)NCC(=O)N[C@@H](CCCNC(=N)N)C(=O)N[C@@H](CC(N)=O)C(=O)N[C@@H](CC(N)=O)C(=O)N[C@@H](CO)C(=O)O)[C@@H](C)O [Peptide 9019.0141] | 25 |  |  |
| CC(C)C[C@H](NC(=O)[C@H](CC(C)C)NC(=O)[C@H](CC(C)C)NC(=O)[C@H](CC(C)C)NC(=O)[C@H](CC(C)C)NC(=O)[C@H](CC(C)C)NC(=O)[C@@H]1CCCN1C(=O)[C@H](CC(C)C)NC(=O)[C@H](CC(C)C)NC(=O)[C@@H]1CCCN1C(=O)[C@H](CC(C)C)NC(=O)[C@@H](N)CC(C)C)C(=O)NCC(=O)N[C@@H](C)C(=O)N[C@@H](CO)C(=O)O [Peptide 9019.0176] |  | naturally processed peptides |  |
| CC(C)C[C@H](NC(=O)[C@H](CC(C)C)NC(=O)[C@H](CC(C)C)NC(=O)[C@H](CC(C)C)NC(=O)[C@H](CC(C)C)NC(=O)[C@H](CC(C)C)NC(=O)[C@@H]1CCCN1)C(=O)NCC(=O)N[C@@H](C)C(=O)N[C@@H](CO)C(=O)NCC(=O)NCC(=O)NCC(=O)NCC(=O)NCC(=O)O [Peptide 9019.0177] |  | naturally processed peptides |  |
| CC[C@H](C)[C@H](NC(=O)[C@H](Cc1c[nH]cn1)NC(=O)[C@H](CC(C)C)NC(=O)[C@H](CO)NC(=O)[C@H](Cc1ccc(O)cc1)NC(=O)[C@H](CC(C)C)NC(=O)[C@H](Cc1c[nH]cn1)NC(=O)[C@H](CCC(=O)O)NC(=O)[C@H](CC(C)C)NC(=O)[C@@H]1CCCN1C(=O)CNC(=O)[C@H](CCCNC(=N)N)NC(=O)[C@@H](N)CCC(=O)O)C(=O)N1CCC[C@H]1C(=O)N[C@@H](CC(N)=O)C(=O)O [Peptide 9019.0190] | 23 | naturally processed peptides |  |
| CC[C@H](C)[C@H](NC(=O)[C@H](CC(C)C)NC(=O)[C@H](CCCCN)NC(=O)CNC(=O)[C@@H](N)[C@@H](C)O)C(=O)N[C@@H](CCC(N)=O)C(=O)NCC(=O)N[C@@H](C)C(=O)N1CCC[C@H]1C(=O)N[C@H](C(=O)N[C@H](C(=O)N[C@@H](CCCNC(=N)N)C(=O)NCC(=O)N[C@@H](CC(=O)O)C(=O)N1CCC[C@H]1C(=O)O)[C@@H](C)CC)[C@@H](C)O [Peptide 9019.0192] |  | naturally processed peptides |  |
| GDPLNNTTPVTGASP [Peptide 9019.0036] |  |  | IC50 (purified HLA DRB1*0701): 13.2 µM |
